Assay results published in US10323041B2, “Bicyclic derivatives, a process for their preparation and pharmaceutical compositions containing them” (LES LABORATOIRES SERVIER, priority 2015, dated 2019).
Read-outs that look alike come from different tables or passages of the source.

What was measured:
[1] = tested on: H929 multiple myeloma tumour line; experiment: In vitro cytotoxicity, Microculture Tetrazolium Assay on H929 cells; type: cell-based; conditions: cell viability, read-out: IC50 (M) MTT H929
Experimental: The cytotoxicity studies were carried out on the H929 multiple myeloma tumour line.
The cells are distributed onto microplates and exposed to the test compounds for 48 hours. The cell viability is then quantified by a colorimetric assay, the Microculture Tetrazolium Assay (Cancer Res., 1987, 47, 939-942).

[2] = biological target: Mcl-1 protein (Homo sapiens, UniProt Q07820); experiment: Inhibition of Mcl-1 by the fluorescence polarisation technique; type: binding; conditions: for percentage fluorescence polarization inhibition: partial inhibitors
Mcl-1 protein, sequence (Q07820 whole entry): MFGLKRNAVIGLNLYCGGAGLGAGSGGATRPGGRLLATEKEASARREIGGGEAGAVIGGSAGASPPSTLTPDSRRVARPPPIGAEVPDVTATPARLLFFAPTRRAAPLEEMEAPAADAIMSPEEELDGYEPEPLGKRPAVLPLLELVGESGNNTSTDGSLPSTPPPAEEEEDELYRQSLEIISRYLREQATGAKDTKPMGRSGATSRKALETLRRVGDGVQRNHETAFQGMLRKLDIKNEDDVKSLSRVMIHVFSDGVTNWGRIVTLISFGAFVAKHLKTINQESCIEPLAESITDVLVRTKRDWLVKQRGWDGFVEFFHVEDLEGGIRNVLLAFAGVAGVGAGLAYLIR
Experimental: The relative binding potency of each compound was determined via fluorescence Polarisation (FP). The method utilised a Fluorescein labelled ligand Fluorescein-βAla-Ahx-[A-REIGAQLRRMADDLNAQY (SEQ ID NO: 1)]-OH; mw 2,765) which binds to the Mcl-1 protein (such that corresponds to the UniProtKB® primary accession number: Q07820) leading to an increased anisotropy measured in milli-polarisation (mP) units using a reader. The addition of a compound which binds competitively to the same site as the ligand will result in a greater proportion of unbound ligand in the system indicated by a decrease in mP units.
Method 1: An 11 point serial dilution of each compound was prepared in DMSO and 2 μl transferred into flat bottomed, low binding, 384-well plate (final DMSO concentration 5%). 38 μl of buffer (10 mM 4-(2-hydroxyethyl)-1-piperazineethanesulfonic acid [HEPES], 150 mM NaCl, 0.05% Tween 20, pH 7.4), containing the Fluorescein labelled ligand (final concentration 1 nM) and Mcl-1 protein (final concentration 5 nM) was then added.
(§1) Assay plates were incubated ˜2 hours at room temperature before FP was measured on a […] Synergy2 reader (Ex. 528 nm, Em. 640 nm, Cut off 510 nm) and mP units calculated. The binding of increasing doses of test compound was expressed as a percentage reduction in mP compared to a window established between ‘5% DMSO only’ and ‘100% inhibition’ controls. 11-point dose response curves were plotted with XL-Fit software using a 4-Parameter Logistic Model (Sigmoidal Dose-Response Model) and the inhibitory concentrations that gave a 50% reduction in mP (IC50) were determined. Results obtained using Method 1 are presented in Table 1 below; IC50 of Mcl-1 inhibition obtained using Method 1 are not underlined.
Method 2: An 11 point serial dilution of each compound was prepared in DMSO and 2 μl transferred into flat bottomed, low binding, 384-well plate (final DMSO concentration 5%). 38 μl of buffer (20 mM Na2HPO4, 1 mM EDTA, 50 mM NaCl, pH 7.4), containing the Fluorescein labelled ligand (final concentration 10 nM) and Mcl-1 protein (final concentration 10 nM) was then added.
as §1, with “inhibition’ controls (50 μM unlabelled ligand).” for “inhibition’ controls.”, “Method 2” for “Method 1”, “are” for “are not”

[3] = Homo sapiens, NCI-H929, exposed for 48 hours
[4] = Method 1 (not underlined) or Method 2 (underlined), underlining not visible, first value where cell prints two, read-out: IC50 (M) Mcl-1 FP

Row | IC50 [2, 4] [M] | SMILES | also measured
1 | 3.05e-08 | COc1ccccc1-c1nccc(COc2ccccc2C[C@@H](Nc2nccc3sc(-c4ccc(F)cc4)c(-c4ccc(OCCN5CCN(C)CC5)c(Cl)c4C)c23)C(=O)O)n1 [Example 86, N-[3-{3-chloro-2-methyl-4-[2-(4-methylpiperazin-1-yl)ethoxy]phenyl}-2-(4-fluorophenyl)thieno[3,2-c]pyridin-4-yl]-2-{[2-(2-methoxyphenyl)pyrimidin-4-yl]methoxy}phenylalanine] | IC50 [1, 3]: 3.59e-08 M
2 |  | COc1ccccc1-c1nccc(COc2ccccc2CC(Oc2nccc3nc(-c4ccc(F)cc4)c(-c4ccc(OCCN5CCN(C)CC5)c(Cl)c4C)n23)C(=O)O)n1 (centres unmarked) [Example 97a, 2-{[(3Sa)-3-{3-chloro-2-methyl-4-[2-(4-methylpiperazin-1-yl)ethoxy]phenyl}-2-(4-fluorophenyl)imidazo[1,2-c]pyrimidin-5-yl]oxy}-3-(2-{[2-(2-methoxyphenyl)pyrimidin-4-yl]methoxy}phenyl)propanoic acid] | IC50 ([1]; exposed for 48 hours): 1.16e-05 M; percentage fluorescence polarization inhibition ([2]; @ 10 μM test compound): 55% @ 10 μM
3 | 1.9e-08 | COc1ccccc1CC(Oc1cccc2cc(-c3ccc(F)o3)n(-c3ccc(OCCN4CCN(C)CC4)c(Cl)c3C)c12)C(=O)O [Example 60, (2R)-2-{[(1Sa)-1-{3-chloro-2-methyl-4-[2-(4-methylpiperazin-1-yl)ethoxy]phenyl}-2-(5-fluorofuran-2-yl)-1H-indol-7-yl]oxy}-3-(2-methoxyphenyl)propanoic acid] | IC50 [1, 3]: 5.68e-07 M
4 | 4.5e-07 | C=CCCn1c(Br)c(-c2cccc(Cl)c2C)c2c(NC(Cc3ccccc3)C(=O)O)ncnc21 (single isomer, unassigned) [Example 42, N-[6-bromo-7-(but-3-en-1-yl)-(5Sa)-5-(3-chloro-2-methylphenyl)-7H-pyrrolo[2,3-d]pyrimidin-4-yl]-D-phenylalanine] | 
5 | 5.6e-07 | CCc1c(-c2cccc3ccccc23)c2c(N[C@H](Cc3ccccc3)C(=O)O)ncnc2n1Cc1ccccc1 (single isomer, unassigned) [Example 12, N-[7-benzyl-6-ethyl-5-(naphthalen-1-yl)-7H-pyrrolo[2,3-d]pyrimidin-4-yl]-D-phenylalanine] | 
6 | 2.6e-07 | CCc1c(-c2cccc(Cl)c2C)c2c(NC(Cc3ccccc3)C(=O)O)ncnc2n1Cc1cccc2ccccc12 (single isomer, unassigned) [Example 33, N-[(5Sa)-5-(3-chloro-2-methylphenyl)-6-ethyl-7-(naphthalen-1-ylmethyl)-7H-pyrrolo[2,3-d]pyrimidin-4-yl]-D-phenylalanine] | 
7 | 8.6e-07 | CCc1c(-c2ccc(OCCN3CCN(C)CC3)c(Cl)c2C)c2c(OC(Cc3ccccc3)C(=O)O)ncnc2n1Cc1ccccc1 [Example 40, (2R)-2-[(7-benzyl-(5Sa)-5-{3-chloro-2-methyl-4-[2-(4-methylpiperazin-1-yl)ethoxy]phenyl}-6-ethyl-7H-pyrrolo[2,3-d]pyrimidin-4-yl)oxy]-3-phenylpropanoic acid] | IC50 ([2]; value after '/', presumably the other FP method (Method 1 / Method 2), read-out: IC50 (M) Mcl-1 FP, second value of the cell): 3.3e-08 M
8 |  | CCc1c(-c2cccc(Cl)c2C)c2c(N[C@H](Cc3ccccc3)C(=O)O)ncnc2n1C(C)C [Example 39, N-[(5Sa)-5-(3-chloro-2-methylphenyl)-6-ethyl-7-(propan-2-yl)-7H-pyrrolo[2,3-d]pyrimidin-4-yl]-D-phenylalanine] | percentage fluorescence polarization inhibition ([2]; @ 50 μM test compound, 50 µM): 77.75% @ 50 μM
9 | 1.2e-07 | CCc1sc2cccc(CC(Cc3ccccc3)C(=O)O)c2c1-c1ccc(O)c(Cl)c1C (centres unmarked) [Example 54, 2-benzyl-3-[3-(3-chloro-4-hydroxy-2-methylphenyl)-2-ethyl-1-benzothiophen-4-yl]propanoic acid] | 
10 | 3.9e-08 | CCc1sc2cccc(OC(Cc3ccccc3)C(=O)O)c2c1-c1ccc(O)c(Cl)c1C [Example 49, (2R)-2-{[(3Sa)-3-(3-chloro-4-hydroxy-2-methylphenyl)-2-ethyl-1-benzothiophen-4-yl]oxy}-3-phenylpropanoic acid] | 
